Measured values reported in patent publication US9518094B2 (priority 2010, dated 2016).
Values after ≈ are worked out from the molar mass of the structure shown. “Also recorded” adds a separate entry of the source. Where two headings read alike, the source gives them in different places.

Legend:
patients [1] = test: Toxicity and adverse events in clinical studies of Compound I; details: early development; out of more than 450 patients
patients [2] = details: human, in vivo
[3] = Slurry interconversion of solid forms with Form A; format: physicochemical; details: slurry of the form together with Form A; resulting form (time)
[4] = Solubility assessment of Compound I Form A in solvents and solvent mixtures (visual observation); format: physicochemical
[5] = Solid form stability under ambient conditions; format: physicochemical
Protocol: Samples were prepared from Compound I Form A solids or from samples generated from these solids. Form designation for the materials was based on X-ray powder diffraction (XRPD). Care was taken to protect samples from light, unless stated otherwise. Prior to characterization, solids were stored as follows: Form A and Form B (may have contained Form A solids as well) under ambient conditions, Form E and Form H over desiccant in a freezer, Form C in contact with mother liquor in a refrigerator, Form D in contact with mother liquor in a freezer, and Form I in contact with mother liquor under ambient conditions or in a freezer. Due to apparent instability of Form D, all characterization data except solution proton nuclear magnetic resonance spectroscopy (H-NMR) were collected for Form D on the same day. Although the ^1H-NMR analysis was not run until a few days later, the solution for the analysis was prepared on the same day as the rest of the characterization.
A crystal prepared from cold acetone solution was indexed. The indexing solution was determined to be an orthorhombic unit cell with the following cell parameters and calculated volume: a=9.093, b=15.581, c=23.141 Å, V=3278.57(9) Å^3. The formula weight was determined to be 598.81 g/mol. The cell parameters are similar to the cell obtained from the Compound I Form J crystal structure. […]

[6] = Form N solvent removal attempts (heating, vacuum drying, slurry), resulting form by XRPD; format: physicochemical; details: for XRPD result after vacuum drying: 43 mg, 42° C. vac dry 22 hours at 20 mTorr
Protocol: The resulting solids were characterized by proton NMR spectroscopy. […] Subsequently, the dried sample was characterized by DSC. The observed results are subject to the conditions used at the time of analysis. […] The remaining solids (43 mg) were dried for approximately 22 hours in a vacuum oven at approximately 42° C., at approximately 20 mTorr. The weight loss was not determined but the dried solids were characterized by XRPD.
Solids were recovered via vacuum filtration, washing with acetonitrile (4×1 mL). The solids were left on the filter under vacuum for several minutes to dry the solids. […] In another embodiment, 309.5 mg of solid were slurried in water (4 mL) for approximately 24.5 hours. Solids were recovered via vacuum filtration, washing with water (2×1 mL). The solids were left on the filter under vacuum for approximately 1.5 hours to dry the solids.

## C/C=C1\NC(=O)[C@H]2CSSCC/C=C/[C@H](CC(=O)N[C@H](C(C)C)C(=O)N2)OC(=O)[C@H](C(C)C)NC1=O [Compound I, romidepsin]
Patients [1]
  deaths during clinical investigations: 6
Patients [2]
  Severity of observed toxicities: mild to moderate
  serial serum troponin levels and multiple gated acquisition (MUGA) scans: consistently normal

## C/C=C1\NC(=O)[C@H]2CSSCC/C=C/[C@H](CC(=O)N[C@H](C(C)C)C(=O)N2)OC(=O)[C@H](C(C)C)NC1=O [Form A, romidepsin]
[3]
  Slurry interconversion: Remains A
[4]; 2,2,2-trifluoroethanol (TFE), organic solvent or mixture, thermodynamic from solid, 2,2,2-trifluoroethanol (TFE), ambient temperature, reported values <= actual solubility, approximate, read-out: Solubility
  solubility: > 100 mg/mL
[4]; 2,2,2-trifluoroethanol (TFE), ambient temperature, reported values <= actual solubility, approximate, listed as Compound I, Form A
  solubility: 158.9 mg/mL (≈ 294 mM)
[4]; 2-butanone (MEK), organic solvent or mixture, thermodynamic from solid, 2-Butanone (MEK), ambient temperature, reported values <= actual solubility, approximate, read-out: Solubility
  solubility: 12.5 mg/mL (≈ 23.1 mM)
[4]; (0.1:0.1) TFE:DCM, organic solvent or mixture, thermodynamic from solid, (0.1:0.1) TFE:DCM, ambient temperature, reported values <= actual solubility, approximate, read-out: Solubility
  solubility: 97 mg/mL (≈ 179 mM)
[4]; (0.5:0.1) acetone:DCM, organic solvent or mixture, thermodynamic from solid, (0.5:0.1) Acetone:DCM, ambient temperature, reported values <= actual solubility, approximate, read-out: Solubility
  solubility: 38 mg/mL (≈ 70.3 mM)
[4]; (1:0.1) 2-butanone:TFE, organic solvent or mixture, thermodynamic from solid, (1:0.1) 2-Butanone:TFE, ambient temperature, reported values <= actual solubility, approximate, read-out: Solubility
  solubility: 20.6 mg/mL (≈ 38.1 mM)
[4]; (1:0.1) toluene:TFE, organic solvent or mixture, thermodynamic from solid, (1:0.1) Toluene:TFE, ambient temperature, reported values <= actual solubility, approximate, read-out: Solubility
  solubility: 21.4 mg/mL (≈ 39.6 mM)
[4]; (1:0.2) acetonitrile (ACN):TFE, organic solvent or mixture, thermodynamic from solid, (1:0.2) Acetonitrile (ACN):TFE, ambient temperature, reported values <= actual solubility, approximate, read-out: Solubility
  solubility: 17.9 mg/mL (≈ 33.1 mM)
[4]; (1:0.2) ethanol:TFE, organic solvent or mixture, thermodynamic from solid, (1:0.2) Ethanol:TFE, ambient temperature, reported values <= actual solubility, approximate, read-out: Solubility
  solubility: 16.3 mg/mL (≈ 30.1 mM)
[4]; (1:0.5) dioxane:acetone, organic solvent or mixture, thermodynamic from solid, (1:0.5) Dioxane:Acetone, ambient temperature, reported values <= actual solubility, approximate, read-out: Solubility
  solubility: 13.3 mg/mL (≈ 24.6 mM)
[4]; (1:1) 2-propanol:acetone, 60 °C, organic solvent or mixture, thermodynamic from solid, (1:1) 2-Propanol:Acetone, hot plate set to 60° C., reported values <= actual solubility, approximate, read-out: Solubility
  solubility: 11.5 mg/mL (≈ 21.3 mM)
[4]; (1:1) ethanol/IPA, 70 °C, organic solvent or mixture, thermodynamic from solid, (1:1) Ethanol/IPA, hot plate set to 70° C., reported values <= actual solubility, approximate, read-out: Solubility
  solubility: 28 mg/mL (≈ 51.8 mM)
[4]; (1:3) ethanol/IPA, 70 °C, organic solvent or mixture, thermodynamic from solid, (l:3) Ethanol/IPA, hot plate set to 70° C., reported values <= actual solubility, approximate, read-out: Solubility
  solubility: 10 mg/mL (≈ 18.5 mM)
[4]; (1.5:0.5) water:DCM, aqueous with cosolvent or surfactant or cyclodextrin, thermodynamic from solid, (1.5:0.5) Water:DCM, ambient temperature, reported values <= actual solubility, approximate, read-out: Solubility
  solubility: 12.4 mg/mL (≈ 22.9 mM)
[4]; (1.5:0.8) ethyl acetate:acetone, organic solvent or mixture, thermodynamic from solid, (1.5:0.8) Ethyl Acetate:Acetone, ambient temperature, reported values <= actual solubility, approximate, read-out: Solubility
  solubility: 8.9 mg/mL (≈ 16.5 mM)
[4]; (1.5:1) heptane:DCM, 60 °C, organic solvent or mixture, thermodynamic from solid, (1.5:1) Heptane:DCM, hot plate set to 60° C., reported values <= actual solubility, approximate, read-out: Solubility
  solubility: 8 mg/mL (≈ 14.8 mM)
[4]; (1.5:1) methanol:TFE, 60 °C, organic solvent or mixture, thermodynamic from solid, (1.5:1) Methanol:TFE, hot plate set to 60° C., reported values <= actual solubility, approximate, read-out: Solubility
  solubility: 8.7 mg/mL (≈ 16.1 mM)
[4]; (4.5:3) isopropyl ether:ethanol, organic solvent or mixture, thermodynamic from solid, (4.5:3) Isopropyl Ether:Ethanol, ambient temperature, reported values <= actual solubility, approximate, read-out: Solubility
  solubility: 6.8 mg/mL (≈ 12.6 mM)
[4]; Acetone, ambient temperature, reported values <= actual solubility, approximate, listed as Compound I, Form A
  solubility: 28.2 mg/mL (≈ 52.2 mM)
[4]; Dichloromethane (DCM), ambient temperature, reported values <= actual solubility, approximate, listed as Compound I Form A
  solubility: over 100 mg/ml
[4]; Dimethylformamide (DMF), ambient temperature, reported values <= actual solubility, approximate, listed as Compound I Form A
  solubility: over 100 mg/ml
[4]; Dimethylformamide (DMF), ambient temperature, reported values <= actual solubility, approximate, listed as Compound I, Form A
  solubility: 248.5 mg/mL (≈ 460 mM)
[4]; acetone, organic solvent or mixture, thermodynamic from solid, Acetone, ambient temperature, reported values <= actual solubility, approximate, read-out: Solubility
  solubility: 22.4 mg/mL (≈ 41.4 mM)
[4]; chloroform, organic solvent or mixture, thermodynamic from solid, Chloroform, ambient temperature, reported values <= actual solubility, approximate, read-out: Solubility
  solubility: 26.5 mg/mL (≈ 49 mM)
[4]; ethanol (EtOH), organic solvent or mixture, thermodynamic from solid, Ethanol (EtOH), ambient temperature, reported values <= actual solubility, approximate, read-out: Solubility
  solubility: 23.5 mg/mL (≈ 43.5 mM)
[4]; isopropanol (IPA), organic solvent or mixture, thermodynamic from solid, Isopropanol (IPA), ambient temperature, reported values <= actual solubility, approximate, read-out: Solubility
  solubility: 4.6 mg/mL (≈ 8.51 mM)
[4]; majority of the solvents and solvent combinations tested, organic solvent or mixture, thermodynamic from solid, majority of solvent and solvent combinations tested, read-out: moderate solubility
  solubility: > 10 mg/mL
[4]; nitromethane, organic solvent or mixture, thermodynamic from solid, Nitromethane, ambient temperature, reported values <= actual solubility, approximate, read-out: Solubility
  solubility: 23.6 mg/mL (≈ 43.6 mM)

## C/C=C1\NC(=O)[C@H]2CSSCC/C=C/[C@H](CC(=O)N[C@H](C(C)C)C(=O)N2)OC(=O)[C@H](C(C)C)NC1=O [Form B, romidepsin]
[3]
  Slurry interconversion: A + B → A (2 hrs)

## C/C=C1\NC(=O)[C@H]2CSSCC/C=C/[C@H](CC(=O)N[C@H](C(C)C)C(=O)N2)OC(=O)[C@H](C(C)C)NC1=O [Form C, romidepsin]
[3]
  Slurry interconversion: A + C → A (2 hrs)

## C/C=C1\NC(=O)[C@H]2CSSCC/C=C/[C@H](CC(=O)N[C@@H](C(C)C)C(=O)N2)OC(=O)[C@H](C(C)C)NC1=O [Form D, romidepsin]
[3]
  Slurry interconversion: A + D → A, trace C
[5]
  Form conversion under ambient conditions: converts to Form A

## C/C=C1\NC(=O)[C@H]2CSSCC/C=C/[C@H](CC(=O)N[C@H](C(C)C)C(=O)N2)OC(=O)[C@H](C(C)C)NC1=O [Form E, romidepsin]
[3]
  Slurry interconversion: A + E → A, trace E

## C/C=C1\NC(=O)[C@H]2CSSCC/C=C/[C@H](CC(=O)N[C@H](C(C)C)C(=O)N2)OC(=O)[C@H](C(C)C)NC1=O [Form I, romidepsin]
[5]; listed as Compound I Form I
  Form conversion under ambient conditions: converts to Form H

## C/C=C1\NC(=O)[C@H]2CSSCC/C=C/[C@H](CC(=O)N[C@H](C(C)C)C(=O)N2)OC(=O)[C@H](C(C)C)NC1=O [Form N, romidepsin]
[6]; 10.3 mg, heated to 180° C. by DSC (crimped)
  XRPD result after heating: Form A + 2 weak peaks
[6]
  XRPD result after vacuum drying: unknown + Form N
[6]; listed as Compound I, Form N
  XRPD result after vacuum drying: contains XRPD peaks of Form N but exhibits additional unknown peaks
[6]; 152.4 mg, 1 mL acetonitrile, slurry 1 hour
  XRPD result after slurry: pattern T
[6]; 308.3 mg, RT vac dry 5 days at 5 mTorr
  HR XRPD result after vacuum drying: exhibited Form N; also recorded: Form N + weak peak
[6]; 309.5 mg, 4 mL water, slurry 24.5 hours
  HR XRPD result after slurry: a mixture of Forms C and A; also recorded: Forms C + A + peaks ^g
